These results are taken from ChEMBL document CHEMBL1147516, “Synthesis and evaluation of lasonolide A analogues” (2004).

Bounds are passed on as bounds.

What all share (assay type): functional
Common to all, as to conditions: Homo sapiens

The subject of one assay is NCI-H46. Nature of the assay: Growth inhibition against NCI-H460 cell line was evaluated.
For the next assay, the system named is A549. Kind of assay: Growth inhibition against A549 cell line was evaluated.
Another assay has as its system HCT-116. Kind of assay: Growth inhibition against HCT116 cell line was evaluated.

For `CCCCCCCCCCCCOC(=O)[C@H](O)C/C=C\C[C@@H]1O[C@@H]2/C=C/C/C=C/C(C)=C\[C@H]3O[C@@H](C/C=C/C=C/C(=O)O[C@H](C2)[C@@]1(C)CO)C[C@H](O)[C@H]3C`, the GI50 in the assay with NCI-H46 was 170 nM; in the assay with A549 it was 200 nM; in the assay with HCT-116, 190 nM.

For `C=C(CCC(C)C)COC(=O)[C@H](O)C/C=C\C[C@@H]1O[C@@H]2/C=C/C/C=C/C(C)=C\[C@H]3O[C@@H](C/C=C/C=C/C(=O)O[C@H](C2)[C@@]1(C)CCO)C[C@H](O)[C@H]3C`, the concentration for 50% growth inhibition (GI50) came out at 1000 nM in the assay on NCI-H46, 800 nM in the assay on A549 and 1800 nM with HCT-116.

As to `C=C(CCC(C)C)COC(=O)[C@H](O)C/C=C\C[C@@H]1O[C@@H]2/C=C/C/C=C/C(C)=C\[C@@H]3C[C@@H](O)C[C@H](C/C=C/C=C/C(=O)O[C@H](C2)[C@@]1(C)CO)O3`, the GI50 in the assay on NCI-H46 is 65 nM; with A549, 100 nM; with HCT-116, 45 nM.

For the compound `C=C(CCC(C)C)COC(=O)[C@H](O)C/C=C\C[C@@H]1O[C@@H]2/C=C/C/C=C/C(C)=C\[C@H]3O[C@@H](C/C=C/C=C/C(=O)O[C@H](C2)[C@@]1(C)CO)C[C@H](O)[C@H]3C` [LASONOLIDE A], the GI50 with NCI-H46 was below 3 nM; in the assay on A549 it was 15 nM; with HCT-116, 3 nM.

`CCOC(=O)[C@H](O)C/C=C\C[C@@H]1O[C@@H]2/C=C/C/C=C/C(C)=C\[C@H]3O[C@@H](C/C=C/C=C/C(=O)O[C@H](C2)[C@@]1(C)CO)C[C@H](O)[C@H]3C` [LASONOLIDE E]: the results for the GI50 in the assay on NCI-H46, in the assay with A549 and in the assay with HCT-116 were 15 nM, 7 nM and 100 nM, respectively.
